# Measurements taken from US4268630A, “Microbiological production of ketones from C3 -C6 alkanes” (priority 1979, dated 1981).
# How the values were obtained:
# [1] = system: Methylomonas albus BG8 (NRRL B-11,200); test: Oxidation of sec-alcohols to ketones by resting cell suspension; format: cell-based
# Description: (§1) The pH of the nutrient medium was adjusted to 7.0 by the addition of acid or base and 50 ml. samples of the nutrient medium were charged into a plurality of 300 ml. shaker flasks. The shaker flasks were inoculated with an inoculating loop of cells from an agar plate containing homogeneous colonies of the microorganisms on the plate (the purity of the isolates was confirmed by microscopic examination). The isolates had been maintained on methanol (0.4% V/V) agar plates or on agar plates under an atmosphere of methane and air having a 1:1 V/V gas ratio which had been transferred every two weeks. For growth on methanol, the medium was supplemented with 0.4% methanol. For growth on methane, the gaseous phase of the inoculated flasks was replaced with a gas mixture comprised on methane and air having a ratio of 1:1 on a V/V basis. The inoculated flasks were sealed air-tight and were incubated on a rotary shaker of orbital radius 2.5 cm. at 250 rpm and at 30° C. for two days until turbidity in the medium had developed. The cells were harvested by centrifugation at 10,000×g. at 4° C. for 30 minutes. The cell pellet was washed twice with a 0.05 M phosphate buffer at a pH of 7.0 (containing 0.02 M MgCl2). The washed cells were then suspended in a 0.05 M phosphate buffer at pH 7.0.
# (§2) A 0.5 ml. sample of each washed cell suspension (2 mg. cells) was put into 10 ml. vials at 4° C. which were sealed with a rubber cap. The gaseous phase of the vials was removed with vacuum and then was replaced with a gas mixture of the substrate reactant (i.e., alkane or secondary alcohol) and oxygen at a 1:1 V/V ratio. (In the case of a liquid substrate, i.e., secondary alcohol, 10 μl of the substrate was put in the 10 ml. vials). […] Samples of product (1-3 μl) were withdrawn periodically with a microsyringe and the products were analyzed by gas chromatography (ionization flame detector column).
# (§3) The procedure in Example 1 was repeated wherein a plurality of the methane-utilizing methylotrophic microorganisms were each grown aerobically in a nutrient medium containing methane as the alcohol dehydrogenase enzyme inducer and as the major carbon and energy source for growth. The cells were harvested and washed as described in Example 1. The resting microbial cells of the induced methane-grown methane-utilizing methylotrophic microorganisms were then contacted with C3 -C6 secondary alcohols in a buffered solution by the procedure of Example 1.
# (§4) In this example, the procedure in Example 1 was repeated except that a plurality of methane-utilizing methylotrophic microorganisms were each aerobically grown in a methanol-containing nutrient medium instead of a methane-containing medium. The nutrients in the medium were the same as indicated in Example 1 except that 0.4% V/V methanol was used as the alcohol dehydrogenase inducer and major source of carbon and energy for growth. Following growth, the cells were harvested and washed as described in Example 1. The resting cells of the induced methanol-grown methylotrophic microorganisms were then contacted with secondary alcohols in a buffered solution by the procedure described in Example 1.
# [2] = system: Methylosinus sporium 5 (NRRL B-11,197); test: as above; format: cell-based
# Description: as §1, §2, §3, §4
# [3] = system: cell extracts of Kloeckera sp. strain A2 NRRL Y-11,420; test: NAD+-dependent oxidation of secondary alcohols by cell extracts of yeasts; format: biochemical; details: for Conversion Rate, secondary alcohol to methylketone: cell extracts, grown on methanol, NAD+, gas chromatography
Compound,"Conversion Rates, sec-alcohol to methyl ketone ([1]; cells grown on methanol) [μmoles/hr/mg protein]","Conversion Rates, sec-alcohol to methyl ketone ([1]; resting cells grown on methane) [μmoles/hr/mg protein]","Conversion Rates, sec-alcohol to methyl ketone ([2]; cells grown on methanol) [μmoles/hr/mg protein]","Conversion Rates, sec-alcohol to methyl ketone ([2]; resting cells grown on methane) [μmoles/hr/mg protein]","Conversion Rate, secondary alcohol to methylketone [3] [μmoles/hr/mg Protein]","specific activities ([3]; spectrophotometric, 2-butanol as substrate)"
"CCC(C)O (stereo not shown) [2-Butanol, 2-butanol]",3.0,3.5,3.5,3.0,5.9,90 nmoles NAD^+ reduced per min. per mg. protein
"CC(C)O [2-Propanol, 2-propanol]",1.5,1.3,0.45,0.30,4.8,–
"CCCCC(C)O (stereo not shown) [2-Hexanol, 2-hexanol]",–,–,–,–,0.25,–
"CCCC(C)O (stereo not shown) [2-Pentanol, 2-pentanol]",–,–,–,–,1.2,–
